Values after ≈ are worked out from the molar mass of the structure shown. Read-outs that look alike come from different tables or passages of the source.
Columns and labels:
patients with NASH = experiment: Example 12: double-blind study of daily 25 mg OCA in NASH, high risk subgroup; type: in vivo, human; conditions: week 72, 25 mg OCA daily
Description: This example describes a clinical, double-blind study examining the effect of daily 25 mg OCA on nonalcoholic steatohepatitis (NASH). OCA lead to biopsy proven improvements in liver fibrosis. Patients with NASH who have elevated NAFLD activity scores (NAS) and fibrosis are at a higher risk of progression to cirrhosis and liver related mortality.
The high risk subgroup was defined as patients with a baseline NAS≥4, baseline fibrosis stage 2 or 3 or baseline fibrosis stage 1 with a comorbidity (type 2 diabetes, BMI≥30 kg/m^2 or ALT≥60 U/L) (OCA n=114; Placebo n=112). The Fibrosis-4 (FIB-4), the aspartate transaminase to platelet ratio (APRI), and the NAFLD fibrosis score (NFS) were all examined between baseline through 72 weeks of treatment and for an additional 24 weeks of follow up.

[1] = normal hepatic function, Fixed; cited from earlier work
[2] = Example 10: clinical pharmacology / pharmacokinetics of OCA; type: in vivo, human; conditions: for Urinary excretion / dose excreted in feces: radiolabeled ([^14C]) obeticholic acid
Description: This example describes clinical pharmacology and dosing of obeticholic acid (OCA—including obeticholic acid compositions described herein). […] OCA can be supplied as an oral tablet containing obeticholic acid in a formulation as described herein.
Median Tmax for glyco-OCA and tauro-OCA is 10 hours.
Following an oral administration of 25 mg [^14C]-OCA, about 87% of the dose is excreted in feces through biliary secretion. Less than 3% of the dose is excreted in the urine with no detection of OCA.

[3] = Equilibrium solubility of OCA in various buffers at 37° C.; type: physicochemical; conditions: for solubility: aqueous buffer, 37 °C, thermodynamic from solid
Description: Solubility Studies of OCA in Various Buffers. A study was performed to screen different media of various pH over the pH range 1.2-10.0, incorporating the physiological pH range (1.2-6.8) for immediate release tablets.

PBC patients = experiment: Example 7: 12-week placebo-controlled OCA monotherapy study (10 mg, 50 mg) in PBC; type: in vivo, human; conditions: for ALP Change from Baseline to Day 85/ET, Mean / ALP Level at Day 85/ET, Mean / ALP Level at Day 85/ET, Median / Percent Change in ALP from Baseline to EOS, Mean (SD) / Percent Change in ALP from Baseline to EOS, Median / GGT level at Day 85/ET, mean (SD): ITT
Description: This example describes a study of two doses of OCA (10 mg and 50 mg) vs. placebo for a period of 12 weeks (85 days). The study was completed by 48 patients and PK data are available for 34 patients. All patients returned to the study site for 4 visits (Day 15, Day 29, Day 57, and Day 85) for evaluations of efficacy, safety, tolerability, and compliance with investigational product.
Key Exclusion Criteria • 1. The following drugs were contraindicated: ursodeoxycholic acid (UDCA), colchicine, methotrexate, azathioprine, or systemic corticosteroids • 2. Conjugated bilirubin>2×ULN; ALT or AST>5×ULN and serum creatinine>133 μmol/L (1.5 mg/dL) • 3. History or presence of hepatic decompensation • 4. History of presence of concomitant liver diseases such as Hepatitis B or C; HIV; primary sclerosing cholangitis, alcoholic liver disease, definite autoimmune liver disease or biopsy proven nonalcoholic steatohepatitis (NASH).
The percent change (%) in serum ALP from Baseline to End of Study (EOS) was monitored. The baseline value was the mean of the pretreatment screening and day 0 evaluations. The EOS value was Day 85/ET or the last observed ALP value on treatment.
Absolute changes in serum ALP levels were monitored from Baseline to Day 15, Day 29, Day 57, Day 85/ET and Follow-Up (Day 99). The percentage of patients was calculated who met the definition of PBC responder criteria applying the Paris I, Toronto I, Toronto II, Toronto III, Toronto IV, Mayo II, and Barcelona disease prognostic risk criteria at Day 85/ET. Each patient was tested for absolute and percent change in serum aspartate aminotransferase (AST), alanine aminotransferase (ALT), gamma-glutamyl transferase (GGT), and conjugated (direct) bilirubin values from Baseline to Day 15, Day 29, Day 57, Day 85/ET and Follow-Up (Day 99).

[4] = Hepatic impairment study, single dose of 10 mg OCA; type: in vivo, human; conditions: hepatically-impaired patients
Text: The mean total OCA concentration-time profiles in this study are shown in FIG. 16 and the mean PK parameters (Cmax and AUCt) for total OCA in plasma for normal healthy volunteers and subjects with various categories of hepatic impairment are quantified in Table 27.
Development of the PK model for the physiological changes associated with hepatic impairment used 928 plasma sample concentrations of OCA, glyco-OCA, and tauro-OCA from 32 subjects-8 subjects each with mild, moderate, severe hepatic impairment and normal hepatic function. Subjects were administered a single 10 mg dose of OCA. […] Participants were 90.6% white, 3.1% black, 3.1% Asian, and 3.1% other. Mean Child-Pugh Score was 8.0 (2.0) (Child-Pugh Score: Class A/Mild 5-6 points, Class B/Moderate 7-9 points, Class C/Severe 10-15 points). The percentage of BLQ samples with imputed concentrations was 16.8%, 5.4%, and 9.6% for OCA, glyco-OCA, and tauro-OCA, respectively.

[5] = oral, listed as obeticholic acid

SMILES: CC[C@H]1[C@@H](O)[C@@H]2[C@H](CC[C@]3(C)[C@@H]([C@H](C)CCC(=O)O)CC[C@@H]23)[C@@]2(C)CC[C@@H](O)C[C@@H]12 [OCA, 3α,7α-dihydroxy-6α-ethyl-5β-cholan-24-oic acid]
- APRI OCA-Placebo LS Mean change (patients with NASH; 95% CI=[−0.32, −0.15]): −0.23
- NFS OCA-Placebo LS Mean change (patients with NASH; 95% CI=[−0.45, −0.10]): −0.28
- FIB-4 OCA-Placebo LS Mean change (patients with NASH; 95% CI=[−0.47, −0.19]): −0.33
- t13: OCA transport rate from sinusoidal space to liver [1]: 1.62 h⁻¹
- effect of food on PK ([2]; 10 mg OCA): does not have a clinically relevant effect
- increase in obeticholic acid exposure ([2]; 20 mg omeprazole once daily with obeticholic acid 10 mg once daily): less than 1.2 fold
- systemic exposure versus dose ([2]; 5, 10, and 25 mg once daily for 14 days): increase dose proportionally
- Vd ([2]; human, in vivo, read-out: volume of distribution): 613 L
- Tmax ([2]; human, plasma, multiple oral doses of OCA 10 mg once daily, read-out: median time (Tmax) of peak plasma concentrations): ~1.5 h
- half-life ([2]; human, plasma, oral, read-out: effective half-life (converted)): ~24 h
- Tmax ([2]; human, plasma, oral, read-out: median time (tmax) of peak plasma concentrations): ~2 h
- Urinary excretion ([2]; oral): Less than 3%
- dose excreted in feces ([2]; oral): about 87%
- Urinary excretion [2, 5]: less than 3%
- dose excreted in feces [2, 5]: greater than 85%
- solubility ([3]; pH 4.1, aqueous buffer, pH 4.1 Acetate): 3 µg/mL (≈ 7.13 µM)
- solubility ([3]; pH 5.1, aqueous buffer, pH 5.1 Acetate): 23 µg/mL (≈ 54.7 µM)
- solubility ([3]; pH 6, aqueous buffer, pH 6.0 Phosphate): 50 µg/mL (≈ 119 µM)
- solubility ([3]; pH 6.8, aqueous buffer, above pH 6.8): > 10 µg/mL
- solubility ([3]; pH 6.8, aqueous buffer, pH 6.8 Phosphate (50 mM sodium phosphate dibasic)): 220 µg/mL (≈ 523 µM)
- solubility ([3]; pH 7, aqueous buffer, pH 7.0 Phosphate): 462 µg/mL (≈ 1100 µM)
- solubility ([3]; pH 8, aqueous buffer, pH 8.0 Phosphate): 486 µg/mL (≈ 1160 µM)
- solubility ([3]; pH 9, aqueous buffer, pH 9.0 Alkaline Borate): 462 µg/mL (≈ 1100 µM)
- solubility ([3]; pH 10, aqueous buffer, pH 10.0 Alkaline Borate): 56 µg/mL (≈ 133 µM)
- USP Solubility Rating ([3]; pH 1.2 Hydrochloric acid): Practically
- USP Solubility Rating ([3]; pH 2.0 Hydrochloric acid): Practically
- USP Solubility Rating ([3]; pH 3.0 Acid Phthalate): Practically
- USP Solubility Rating ([3]; pH 4.1 Acetate): Slightly soluble
- USP Solubility Rating ([3]; pH 5.1 Acetate): Sparingly soluble
- USP Solubility Rating ([3]; pH 6.0 Phosphate): Soluble
- USP Solubility Rating ([3]; pH 6.8 Phosphate): Freely soluble
- USP Solubility Rating ([3]; pH 7.0 Phosphate): Freely soluble
- USP Solubility Rating ([3]; pH 8.0 Phosphate): Freely soluble
- USP Solubility Rating ([3]; pH 9.0 Alkaline Borate): Freely soluble
- USP Solubility Rating ([3]; pH 10.0 Alkaline Borate): Soluble
- mean change in LDL-C at Day 85/ET (PBC patients; OCA 10 mg): +0.10 (0.58) mmol/L
- ALP Change from Baseline to Day 85/ET, Mean (PBC patients; OCA 10 mg (n = 20)): −233.5 U/L
- ALP Level at Day 85/ET, Mean (PBC patients; OCA 10 mg (n = 20)): 228.1 U/L
- ALP Level at Day 85/ET, Median (PBC patients; OCA 10 mg (n = 20)): 196.5 U/L
- Percent Change in ALP from Baseline to EOS, Mean (SD) (PBC patients; OCA 10 mg (n = 20)): −44.5 (24.4) %
- Percent Change in ALP from Baseline to EOS, Median (PBC patients; OCA 10 mg (n = 20)): −53.9%
- GGT level at Day 85/ET, mean (SD) (PBC patients; OCA 10 mg, baseline 653 (370) U/L): 184 (203) U/L
- HDL-C at end of treatment (ET), mean (SD) (PBC patients; OCA 10 mg, baseline 1.73 (0.45) mmol/L): 1.57 (0.46) mmol/L
- AST level at Day 85/ET, mean (SD) (PBC patients; OCA 10 mg, baseline 67 (33) U/L): 54 (40) U/L
- ALT level at Day 85/ET, mean (SD) (PBC patients; OCA 10 mg, baseline 86 (44) U/L): 54 (41) U/L
- mean change in LDL-C at Day 85/ET (PBC patients; OCA 50 mg): +0.23 (0.52) mmol/L
- ALP Change from Baseline to Day 85/ET, Mean (PBC patients; OCA 50 mg (n = 16)): −161.3 U/L
- ALP Level at Day 85/ET, Mean (PBC patients; OCA 50 mg (n = 16)): 269.8 U/L
- ALP Level at Day 85/ET, Median (PBC patients; OCA 50 mg (n = 16)): 197.5 U/L
- Percent Change in ALP from Baseline to EOS, Mean (SD) (PBC patients; OCA 50 mg (n = 16)): −37.6 (21.0) %
- Percent Change in ALP from Baseline to EOS, Median (PBC patients; OCA 50 mg (n = 16)): −37.2%
- GGT level at Day 85/ET, mean (SD) (PBC patients; OCA 50 mg, baseline 455 (418) U/L): 202 (300) U/L
- HDL-C at end of treatment (ET), mean (SD) (PBC patients; OCA 50 mg, baseline 1.95 (0.55) mmol/L): 1.86 (0.56) mmol/L
- AST level at Day 85/ET, mean (SD) (PBC patients; OCA 50 mg, baseline 66 (29) U/L): 56 (28) U/L
- ALT level at Day 85/ET, mean (SD) (PBC patients; OCA 50 mg, baseline 71 (38) U/L): 49 (29) U/L
- dropout rate (PBC patients; OCA 50 mg, early in treatment (<1 month)): 44%
- ALP reduction, on average (PBC patients; each OCA dose (10 mg and 50 mg monotherapy), early stage PBC): approximately 40%
- plasma OCA exposures versus healthy subjects [4]: > 10 fold
